Values quoted from earlier work in US20180271812A1, “CALCIUM BASED CLINICAL MATERIAL WITH ANTIMICROBIAL PROPERTIES AND METHOD OF FORMING FOR PREVENTION OR TREATMENT OF INFECTION” (Biocomposites Limited, priority 2017, published 2018).
Like-named read-outs stand apart in the source and are kept apart here.

Legend:
Staphylococcus aureus = details: breakpoint, EUCAST clinical breakpoints v7.0 (Jan 2017)
[1] = background statement, no test described
Pseudomonas aeruginosa = details: breakpoint
[2] = American Society for Microbiology Kirby-Bauer disk diffusion susceptibility test protocol
[3] = EUCAST clinical breakpoints v7.0 (Jan 2017)

In the case of `NCC[C@H](O)C(=O)N[C@@H]1C[C@H](N)[C@@H](O[C@H]2O[C@H](CN)[C@@H](O)[C@H](O)[C@H]2O)[C@H](O)[C@H]1O[C@H]1O[C@H](CO)[C@@H](O)[C@H](N)[C@H]1O` [Amikacin], the “ZOI against Staphylococcus aureus, Resistant” value (Staphylococcus aureus) is listed as <16 mm and the “ZOI against Staphylococcus aureus, Susceptible” value (Staphylococcus aureus) is listed as ≥18 mm.

In the case of `C/C=C/C=C/C(=O)O` [Sorbic acid], the pH [1] is given as 4.76.

For `CN(C)c1cc(NC(=O)CNC(C)(C)C)c(O)c2c1C[C@H]1C[C@H]3[C@H](N(C)C)C(O)=C(C(N)=O)C(=O)[C@@]3(O)C(O)=C1C2=O` [Tigecycline], the “ZOI against Staphylococcus aureus, Resistant” value (Staphylococcus aureus) is given as <18 mm and the “ZOI against Staphylococcus aureus, Susceptible” value (Staphylococcus aureus) is given as ≥18 mm.

In the case of `NC[C@H]1O[C@H](O[C@H]2[C@H](O)[C@@H](O[C@H]3O[C@H](CO)[C@@H](O)[C@H](N)[C@H]3O)[C@H](N)C[C@@H]2N)[C@H](N)C[C@@H]1O` [Tobramycin], the “ZOI against Pseudomonas aeruginosa, Resistant” value (Pseudomonas aeruginosa; [2]) is listed as ≤12 mm, the “ZOI against Pseudomonas aeruginosa, Susceptible” value (Pseudomonas aeruginosa; [2]) is listed as ≥15 mm and the “ZOI against Pseudomonas aeruginosa, Resistant” value (Pseudomonas aeruginosa; [3]) is listed as <16 mm. For the same compound, the “ZOI against Pseudomonas aeruginosa, Susceptible” value (Pseudomonas aeruginosa; [3]) was ≥16 mm, the “ZOI against Staphylococcus aureus, Resistant” value (Staphylococcus aureus) was <18 mm and the “ZOI against Staphylococcus aureus, Susceptible” value (Staphylococcus aureus) was ≥18 mm.

In the case of Gentamicin, the “ZOI against Pseudomonas aeruginosa, Resistant” value (Pseudomonas aeruginosa; [2]) is listed as ≤12 mm, the “ZOI against Pseudomonas aeruginosa, Susceptible” value (Pseudomonas aeruginosa; [2]) is listed as ≥15 mm and the “ZOI against Pseudomonas aeruginosa, Resistant” value (Pseudomonas aeruginosa; [3]) is listed as <15 mm. For the same compound, the “ZOI against Pseudomonas aeruginosa, Susceptible” value (Pseudomonas aeruginosa; [3]) was ≥15 mm, the “ZOI against Staphylococcus aureus, Resistant” value (Staphylococcus aureus) was <18 mm and the “ZOI against Staphylococcus aureus, Susceptible” value (Staphylococcus aureus) was ≥18 mm.
